Data taken from patent US4610686A, “Controlled delivery of haloperidol by an osmotic delivery system” (ALZA Corporation, priority 1983, dated 1986).
In brackets after ≈: the same amount, converted by molar mass.

Legend:
[1] = haloperidol alone
[2] = haloperidol, background statement; cited from earlier work

O=C(CCCN1CCC(O)(c2ccc(Cl)cc2)CC1)c1ccc(F)cc1 [haloperidol, 4-[4-(-chlorophenyl)-4-hydroxy-1-piperidnyl]-1-(4-fluorophenyl)-1-butanone]
osmotic pressure (in words) [1]: near zero osmotic pressure
solubility (physchem; aqueous citric acid): 165 mg/mL (≈ 439 mM)
solubility (physchem; aqueous maleic acid): > 200 mg/mL
solubility (physchem; aqueous malic acid): > 250 mg/mL
solubility (physchem; water): < 0.1 mg/mL
solubility in water (in words, background) [2]: practically insoluble in water
